Data: patent publication US11352604B2, “Method of making cardiomyocytes from human pluripotent cells” (Wisconsin Alumni Research Foundation, priority 2016, dated 2022)

Tests used:
Type in all cases: cell-based, human
[1] = system: day 5 cardiac progenitors; assay: Methylcellulose colony-forming assay; details: 1% methylcellulose, four days, size >35 μm
Protocol: Day-5 cardiac progenitors from the 19-9-11 cell line were dissociated as above, but then passed 10 times through a syringe with 18 gauge needle and filtered twice through a 45 μm flow cytometry cell strainer. The cells were then counted and 100,000 cells were then mixed with 2 mL of K20 medium plus 10 μM Y-27632 ROCK-inhibitor (Tocris) containing 1% ES-Cult methylcellulose (Stemcell Technologies) and grown in one 6-well of a corning Ultra Low Attachment plate. ImageJ was used to measure colony diameter four days later and single cells observed the first day and after had diameters less than 35 μm.

[2] = system: hPSC-CMs; assay: Transmission electron microscopy of sarcomeres; details: day 30 hPSC-CMs from pI:C-treated progenitors
Source text: Differentiated H9-cTnT-GFP line hPSC-CMs at day 30 were washed twice with sodium phosphate buffer and fixed and maintained in sodium phosphate buffer with 4% paraformaldehyde (PFA) until pelleting and processing for TEM as previously described (Raval et al., 2015).

[3] = system: hPSC-CMs; assay: Seahorse oxygen consumption rate; details: cardiomyocytes from treated vs untreated progenitors
Protocol: After hPSC-CM dissociation of day 40-70 lactate-purified hPSC-CMs from the H9 cTnT-GFP reporter cell line, 25,000 cells per well were replated into Synthemax®-coated wells of Seahorse XF96 V3 PS cell culture plates (Agilent). Plates were analyzed for basal and maximal oxygen consumption rate with a Seahorse XF cell mito stress kit according to the manufacturer's instructions (Agilent) using concentrations of 1 μM oligomycin, 2 μM FCCP, and 0.5 μM Rotenone/antimycin A. Purity was determined by dissociating seahorse wells after analysis and doing live cell flow cytometry for cTnT-GFP. To directly compare data between plate runs/biological replicates, the fold change between hPSC-CMs from pI:C− and pI:C+ progenitors was computed for each sample's maximal and basal oxygen consumption rate normalized to total protein estimated after cell lysis in EBC buffer. Log2 of the fold changes was tested for significance in a one-sample t test against a null hypothesis of 0.

[4] = system: Jag1; assay: Flow cytometry of day 5 progenitors for Jag1 and Notch2
Source text: (§1) Flow cytometry for live cell surface antigens was done on dissociated cells of the 19-9-11 iPS cell line with Thy1 biotin (1:200 Biolegend, with Life Technologies streptavidin direct conjugate at 1:1000) and SIRPα (1:200, Biolegend) in K20 and then analyzed at the UWCCC Flow Cytometry Laboratory using a BD LSRII Fortessa flow cytometer. For progenitor flow experiments, cells were dissociated as above for progenitor dissociation, centrifuged at 200×g, subjected to FACS to concentrate cells, and resuspended in 100 μL, of K2 media+rockI/Jag1 PE, BD Biosciences (1:20); Notch2 APC R&D Biosystems (1:10) and analyzed on either a BD FACSariaII cell sorter or BD LSRII Fortessa flow cytometer.

[5] = system: hPSC-CM sheets from replated progenitors; assay: Video edge detection / beating analysis of cardiomyocyte sheets
Protocol: For quantification of spatial regularity and graphical presentation of time averaged beating in microtissue from the H9-cTnT-GFP (FIGS. 9A, C) or 19-9-11 (FIG. 9B) cell lines, .avi video files of low-powered (2.5× magnification) fields were recorded at a resolution of 1268×720 and a frame rate of 20/second. These videos were exported into a series of sequential .tiff files using Adobe Premiere, and then analyzed in MATLAB using previously described coding algorithms (Huebsch et al., 2015). Calculations of beat rate (before and after ivrabradine, […] for 2 hours, Sigma) were performed manually in the 19-9-11 cell line and multifocal patterns in untreated progenitor-derived sheets were represented as the average rate of beating for all foci present in a field.

[6] = system: day 5 cardiac progenitor cells; assay: Propidium iodide cell cycle flow cytometry; details: day 5 cardiac progenitor cells
Protocol: Propidium iodide staining was performed on ethanol-fixed cells of the 19-9-11 iPS cell line with a low flow rate and linear mode fluorescence according to a previously published protocol (Darzynkiewicz and Juan, 2001).

[7] = system: hPSC-CMs; assay: Flow cytometry of differentiated cells (cTnT, MLC2v)
Protocol: Flow cytometry for internal antigens was done on dissociated cells using the same blocking, washing, secondary antibodies, and buffers as internal antigen immunofluorescence described above using mlc2v (proteintech, 1:100) and cardiac troponin T (Thermo Fisher Scientific, 1:200) in the 19-9-11 iPS cell line. Between washes and staining steps, dissociated cells were pelleted at 1,100 g for 5 minutes. Blocking and antibody staining steps were done in a volume of 100 μL, and washing steps in 1 mL in Eppendorf™ tubes.
as §1

[8] = system: hPSC-CMs; assay: Optical action potential measurement (RH237)
Protocol: After hPSC-CM dissociation, day 30 to 60 lactate-purified hPSC-CMs from the 19-9-11 cell line were plated as 80 μL drops on areas of cover glass previously coated in drops of Synthemax® working solution of 80 μL (Corning) in the K20/2 dissociation and replating technique described above. After at least two days in K2 medium, the fast-equilibrating voltage-sensitive dye RH237 at 1 μM was added and live cells imaged in the cover glass in a Leica confocal microscope. Video files of individual cells were taken and filtered with the 50th FIR filter at a cutoff frequency of 128 Hz. The resulting action potentials were analyzed for rise time and voltage velocity in MATLAB. Individual cells were considered as replicates for statistical purposes and came from 4 cell preparations.

## polyinosinic-polycytidylic acid [pI:C]
[1]
  colony formation: abundant multi-cellular colonies
[2]
  sarcomere ultrastructure: longer, more regular and compact sarcomeres that contained I-bands
[3]
  basal oxygen consumption rate: approximately 2 fold
  maximal oxygen consumption rate: approximately 2 fold
[4]
  number of Jag1 positive cells and median fluorescence signal-to-noise: increased
[5]; primed progenitors
  contraction pattern of cell sheets from dissociated progenitors: highly organized, propagating waves of contraction
[5]; sheets from primed relative to untreated progenitors
  beat angle range: lower range
[6]
  fraction of cells in the G2/S phase of the cell cycle: increased
[7]; comparable for pI:C-treated and untreated progenitors, hES and hiPS cell lines
  purity of cardiomyocytes marked by cardiac troponin T (cTnT) expression: 80-95%
[7]; day 30
  percentage of mlc2v+/cTnT+ hPSC-CMs: markedly increased
[8]; day 30 hPSC-CMs from pI:C-treated vs untreated progenitors
  optical upstroke velocity (rise time): significantly faster
[8]; spontaneous action potentials
  APD80: decrease
